The structures appear in SMILES notation. pKd: −log10 of the molar value.

The target in assay [1] is T1, PCAF bromodomain (Homo sapiens, UniProt Q92831).
T1 construct: The PCAF bromodomain (aa 715–831) containing an N-terminal His6-tag was recombinantly expressed in Escherichia coli Rosetta; His6 (N, cleaved yes); made in house; host or cells: Escherichia coli Rosetta
T1 sequence (Q92831 715-831): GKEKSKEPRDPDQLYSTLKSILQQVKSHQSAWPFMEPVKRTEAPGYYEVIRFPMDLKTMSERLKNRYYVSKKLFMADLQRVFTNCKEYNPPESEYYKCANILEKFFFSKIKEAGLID
The assay is described as follows: Isothermal titration calorimetry (ITC) with PCAF. In kind it is binding. Conditions: from ITC Kd. Background: In ITC the heat of successive injections is recorded.

In assay [2] the target is T2, PCAF bromodomain (Homo sapiens, UniProt Q92831).
T2 construct: made in house
T2 sequence (Q92831 723-827 limits assumed): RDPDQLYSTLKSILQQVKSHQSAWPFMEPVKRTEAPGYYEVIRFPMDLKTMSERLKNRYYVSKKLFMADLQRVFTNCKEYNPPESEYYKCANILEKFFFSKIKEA
The assay is described as follows: SPR (Biacore) of TINS fragment hits on immobilized PCAF. The class given is binding. The following applies: for pKd: SPR, 20 °C, six concentrations, aqueous buffer without DMSO; for LE: from SPR KD and heavy atom count. Here is the method:
Recombinant PCAF was biotinylated on the N-terminal AVI tag in vivo. Purified, biotinylated PCAF was captured onto a NeutraAvidin-coated CM5 sensor chip surface in 20 mM sodium phosphate pH7.5, 150 mM NaCl, 2 mM DTT, and 0.05% P20 Tween. This buffer was subsequently used for all studies. The immobilization level was 10150 RU. All SPR experiments were performed using a Biacore T200 instrument at 20 °C. Fragment hits from TINS were directly solubilized in the running buffer. Each fragment was titrated at six different concentrations for KD determination. An acetyl-Lys 16 peptide derived from H4 was used to monitor the ligand binding capacity of the immobilized PCAF bromodomain at regular intervals.
In general terms: In SPR one partner is held on a chip, and binding of the other changes the refractive index at the surface.

`CNC(=O)c1cc(OCC(=O)Nc2ccccc2)ccc1OC1CCOCC1` [compound 14, N-methyl-5-(2-oxo-2-(phenylamino)ethoxy)-2-((tetrahydro-2H-pyran-4-yl)oxy)benzamide]: the “ligand efficiency (LE)” value on PCAF bromodomain [1] was found to be 0.24.

Turning to `Cc1nn(CCO)c2c1C(=O)CCC2` [compound 11], on PCAF bromodomain [2], the pKd is 3.31 and the LE came to 0.32.

Turning to `NC1CCN(C(=O)C2CC2)CC1` [compound 10], at PCAF bromodomain [2], the pKd is 2.16 and the LE came to 0.24.

As to `Cc1c(N)c(=O)n(-c2ccccc2)n1C` [compound 9], at PCAF bromodomain [2], the pKd was 2.57 and the LE came out at 0.23.

Usually pKd stands for −log10 of the Kd, conventionally taken in molar units.

(Values after paper PMC4770306, “Structure-Based Identification of Inhibitory Fragments Targeting the p300/CBP-Associated Factor Bromodomain” (Journal of Medicinal Chemistry, 2016).)
